Data from PubChem BioAssay (NCI).
“And” between values parts separate entries of the source, which are not always exact repeats. Identical values can stand only once.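 These data come from cells grown in 96-well plates and exposed to compound for 48 hours at five concentrations. GI50 is the concentration that inhibits growth by half. TGI marks complete inhibition of growth.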

Experiments:
Assay in all cases: NCI-60 cell line screen, 48 h
COLO 205 colon = system: COLO 205 colon
EKVX NSCLC = system: EKVX NSCLC
IGROV1 ovarian = system: IGROV1 ovarian
KM12 colon = system: KM12 colon
M14 melanoma = system: M14 melanoma
MALME-3M melanoma = system: MALME-3M melanoma
OVCAR-8 ovarian = system: OVCAR-8 ovarian
SNB-75 CNS = system: SNB-75 CNS
SW-620 colon = system: SW-620 colon
UACC-62 melanoma = system: UACC-62 melanoma

Compound	TGI (COLO 205 colon)	TGI (EKVX NSCLC)	TGI (IGROV1 ovarian)	TGI (KM12 colon)	TGI (M14 melanoma)	TGI (MALME-3M melanoma)	TGI (OVCAR-8 ovarian)	TGI (SNB-75 CNS)	TGI (SW-620 colon)	TGI (UACC-62 melanoma)	GI50 (COLO 205 colon)	GI50 (EKVX NSCLC)	GI50 (IGROV1 ovarian)	GI50 (KM12 colon)	GI50 (M14 melanoma)	GI50 (MALME-3M melanoma)	GI50 (OVCAR-8 ovarian)	GI50 (SNB-75 CNS)	GI50 (SW-620 colon)	GI50 (UACC-62 melanoma)
O=C1C2C3SC(c4cc5ccccc5cc43)C2C(=O)N1c1ccccc1 (centres undefined)	> 100 µM	> 100 µM	> 100 µM	> 100 µM	> 100 µM	> 100 µM	> 100 µM	45.4 µM	> 100 µM	> 100 µM	–	–	–	–	–	–	–	–	–	–
CCN(CC)CCN1C(=O)C2C3C(C)=CC(OC(C)=O)(CC3C)C2C1=O (centres undefined)	> 100 µM	> 100 µM	> 100 µM	> 100 µM	> 100 µM	> 100 µM	> 100 µM	> 100 µM	> 100 µM	> 100 µM	> 100 µM	> 100 µM	> 100 µM	> 100 µM	> 100 µM	> 100 µM	> 100 µM	> 100 µM	> 100 µM	> 100 µM
CN(C)CCN1C(=O)c2cccc3cc(N)cc(c23)C1=O	14.7 µM and 7.19 µM	39.7 µM and 15.3 µM	> 44.1 µM and 20.8 µM	26.5 µM and 25.5 µM	16.7 µM and 8.69 µM	9.85 µM and 8.29 µM	30.5 µM and 7.38 µM	17 µM and 16.7 µM	24.3 µM and 15.9 µM	11.7 µM and 8.02 µM	2.23 µM	4.22 µM	2.68 µM	3.32 µM	–	2.41 µM	2.46 µM	3.81 µM	2.14 µM	2.89 µM
CN(N=O)C(=O)NC(CCCCNC(=O)OCc1ccccc1)C(=O)OCc1ccccc1 (centres undefined)	47.2 µM	> 100 µM	> 100 µM	> 100 µM	36.9 µM	89.6 µM	36.7 µM	36 µM	> 100 µM	33.1 µM	–	–	–	–	–	–	–	–	–	–
Cc1ccc(NC(=O)c2ccoc2)cc1-c1ccc(C(=O)NCC2CC2)cc1	> 25 µM	> 25 µM	> 25 µM	> 25 µM	> 25 µM	> 25 µM	> 25 µM	> 25 µM	> 25 µM	> 25 µM	> 25 µM	> 13.5 µM	> 25 µM	> 25 µM	> 25 µM	> 12.9 µM	> 25 µM	> 25 µM	> 25 µM	13.9 µM
CCC(=O)N1C(=S)SC[C@H]1C(=O)OC	> 100 µM	> 100 µM	> 100 µM	> 100 µM	> 100 µM	> 100 µM	> 100 µM	> 100 µM	> 100 µM	> 100 µM	–	–	–	–	–	–	–	–	–	–
O=C(c1ccccc1)[C@H]1Nc2ccc(Cl)cc2[C@H]2c3ccccc3O[C@H]21	37.4 µM	28.6 µM	38.2 µM	30.2 µM	30.1 µM	31.7 µM	34.6 µM	25.6 µM	31.2 µM	28.6 µM	–	–	–	–	–	–	–	–	–	–
COCCn1c(Nc2ccc(C(=O)NO)cc2)nc2ccccc21	7.88 µM	21.4 µM	15.2 µM	15.1 µM	14.9 µM	9.02 µM	16 µM	19.1 µM	7.14 µM	10.5 µM	2.75 µM	1.89 µM	2.39 µM	3.65 µM	3.49 µM	2.07 µM	2.69 µM	2.62 µM	2.34 µM	2.06 µM
O=C1CN=C(c2ccccc2)c2ccncc2N1	> 100 µM	> 100 µM	> 100 µM	37 µM	> 100 µM	> 100 µM	> 100 µM	> 100 µM	> 100 µM	> 100 µM	–	–	–	–	–	–	–	–	–	–
CC(C)(C)CNCCO	> 100 µM	> 100 µM	> 100 µM	> 100 µM	> 100 µM	> 100 µM	> 100 µM	> 100 µM	> 100 µM	> 100 µM	–	–	–	–	–	–	–	–	–	–
